In the Kinase Knowledgebase extract (Sharma et al. 2016):

Molecular target: MAPK14 (UniProt Q16539)
Experiment: Inhibition of MAPK14 Kinase Activity

Chain of MAPK14 (Q16539 whole entry, looked up): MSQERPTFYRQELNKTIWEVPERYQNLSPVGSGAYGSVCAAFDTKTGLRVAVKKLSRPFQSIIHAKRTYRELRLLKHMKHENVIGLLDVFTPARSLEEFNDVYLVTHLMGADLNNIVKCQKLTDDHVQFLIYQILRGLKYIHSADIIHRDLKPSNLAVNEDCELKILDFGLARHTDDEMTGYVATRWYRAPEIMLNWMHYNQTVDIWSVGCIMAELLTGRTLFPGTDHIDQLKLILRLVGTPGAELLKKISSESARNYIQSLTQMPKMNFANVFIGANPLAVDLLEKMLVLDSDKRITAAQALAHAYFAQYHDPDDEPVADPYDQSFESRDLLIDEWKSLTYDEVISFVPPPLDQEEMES

Structure (SMILES)	IC50 [µM]
CCS(=O)(=O)n1ncc2cc(-c3cc(C(=O)NC4CC4)cc(F)c3C)ccc21	< 10
Cc1c(F)cc(C(=O)NC2CC2)cc1-c1ccc2c(S(C)(=O)=O)n[nH]c2c1	< 10
Cc1c(F)cc(C(=O)NC2CC2)cc1-c1ccc2c(ccn2S(=O)(=O)c2ccccc2)c1	< 10
Cc1ccc(S(=O)(=O)n2ccc3cc(-c4cc(C(=O)NC5CC5)cc(F)c4C)ccc32)cc1	< 10
Cc1ccc(CNC(=O)Cn2ncc3cc(-c4cc(C(=O)NC5CC5)cc(F)c4C)ccc32)cc1	< 10
Cc1c(F)cc(C(=O)NC2CC2)cc1-c1ccc2c(C(=O)NCC3CC3)noc2c1	< 10
Cc1c(F)cc(C(=O)NC2CC2)cc1-c1ccc2c(cnn2S(=O)(=O)c2ccc(C(C)C)cc2)c1	< 10
Cc1noc(C)c1S(=O)(=O)n1ncc2cc(-c3cc(C(=O)NC4CC4)cc(F)c3C)ccc21	< 10
CCCNC(=O)c1noc2cc(-c3cc(C(=O)NC4CC4)cc(F)c3C)ccc12	< 10
Cc1ccc(C(=O)NC2CC2)cc1-c1ccc2c(cnn2S(=O)(=O)c2c(C)nn(C)c2C)c1	< 10
CCCNC(=O)Cn1ncc2cc(-c3cc(C(=O)NC4CC4)cc(F)c3C)ccc21	< 10
Cc1c(F)cc(C(=O)NC2CC2)cc1-c1ccc2[nH]ncc2c1	< 10
Cc1ccc(S(=O)(=O)n2ncc3cc(-c4cc(C(=O)NC5CC5)ccc4C)ccc32)cc1	< 10
COc1cccc(S(=O)(=O)n2ncc3cc(-c4cc(C(=O)NC5CC5)ccc4C)ccc32)c1	< 10
Cc1ccc(C(=O)NC2CC2)cc1-c1ccc2c(cnn2S(=O)(=O)c2ccc(F)cc2)c1	< 10
Cc1ccc(C(=O)NC2CC2)cc1-c1ccc2c(cnn2S(=O)(=O)c2ccc(-c3ccon3)s2)c1	< 10
Cc1c(F)cc(C(=O)NC2CC2)cc1-c1ccc2c(cnn2CC(=O)NCC2CC2)c1	< 10
Cc1c(F)cc(C(=O)NC2CC2)cc1-c1ccc2c(cnn2S(=O)(=O)c2ccsc2)c1	< 10
Cc1ccc(C(=O)NC2CC2)cc1-c1ccc2c(cnn2S(=O)(=O)c2cn(C)cn2)c1	< 10
Cc1ccc(S(=O)(=O)n2ncc3cc(-c4cc(C(=O)NC5CC5)cc(F)c4C)ccc32)cc1	< 10
Cc1ccc(C(=O)NC2CC2)cc1-c1ccc2c(S(=O)(=O)c3ccc(F)cc3)n[nH]c2c1	< 10
COc1cccc(CNC(=O)Cc2noc3cc(-c4cc(C(=O)NC5CC5)ccc4C)ccc23)c1	< 10

Structure (SMILES)	IC50 [µM]
Cc1ccc(C(=O)NC2CC2)cc1-c1ccc2c(cnn2S(=O)(=O)c2ccccc2C#N)c1	< 10
Cc1ccc(C(=O)Nc2nncs2)cc1-c1ccc2c(C3CCNCC3)noc2c1	< 10
Cc1c(F)cc(C(=O)NC2CC2)cc1-c1ccc2c(cnn2S(=O)(=O)c2cccc(Cl)c2)c1	< 10
Cc1c(F)cc(C(=O)NC2CC2)cc1-c1ccc2c(cnn2S(=O)(=O)c2ccccc2F)c1	< 10
Cc1ccc(C(=O)NC2CC2)cc1-c1ccc2c(cnn2S(=O)(=O)Cc2ccccc2)c1	< 10
Cc1ccc(C(=O)NC2CC2)cc1-c1ccc2c(cnn2S(=O)(=O)c2ccc3c(c2)CCO3)c1	< 10
Cc1c(F)cc(C(=O)NC2CC2)cc1-c1ccc2c(NC3CC3)noc2c1	< 10
Cc1ccc(F)cc1S(=O)(=O)n1ncc2cc(-c3cc(C(=O)NC4CC4)cc(F)c3C)ccc21	< 10
Cc1ccc(C(=O)Nc2ccnc(N3CCCC3)c2)cc1-c1ccc2c(C)noc2c1	< 10
Cc1ccc(C(=O)NC2CC2)cc1-c1ccc2c(cnn2S(=O)(=O)c2cccc(F)c2)c1	< 10
Cc1ccc(C(=O)NC2CC2)cc1-c1ccc2c(cnn2S(=O)(=O)c2cccc3nonc23)c1	< 10
Cc1ccc(C(=O)Nc2cccc(N3CCOCC3)c2)cc1-c1ccc2c(C3CCNCC3)noc2c1	< 10
Cc1ccc(C(=O)Nc2cccc(N3CCOCC3)c2)cc1-c1ccc2c(C)noc2c1	< 10
Cc1c(F)cc(C(=O)NC2CC2)cc1-c1ccc2c(cnn2CC(=O)NCc2ccccc2)c1	< 10
Cc1c(F)cc(C(=O)NC2CC2)cc1-c1ccc2c(cnn2S(=O)(=O)c2ccc(F)cc2F)c1	< 10
COC(=O)Cn1ncc2cc(-c3cc(C(=O)NC4CC4)cc(F)c3C)ccc21	< 10
Cc1c(F)cc(C(=O)NC2CC2)cc1-c1ccc2c(cnn2S(=O)(=O)c2ccc(F)c(F)c2)c1	< 10
CCCCCCCCS(=O)(=O)n1ncc2cc(-c3cc(C(=O)NC4CC4)cc(F)c3C)ccc21	< 10
Cc1ccc(NC(=O)c2ccnc(N3CCCC3)c2)cc1-c1ccc2c(C3CCNCC3)noc2c1	< 10
Cc1ccc(NC(=O)c2ccsc2)cc1-c1ccc2c(C)noc2c1	< 10
Cc1ccc(C(=O)NCC2CC2)cc1-c1ccc2c(C3CCNCC3)noc2c1	< 10
COc1cccc(S(=O)(=O)n2ncc3cc(-c4cc(C(=O)NC5CC5)cc(F)c4C)ccc32)c1	< 10

Structure (SMILES)	IC50 [µM]
Cc1c(F)cc(C(=O)NC2CC2)cc1-c1ccc2c(cnn2S(=O)(=O)c2cc(F)ccc2F)c1	< 10
Cc1c(F)cc(C(=O)NC2CC2)cc1-c1ccc2c(c1)c(C)nn2S(=O)(=O)c1cccs1	< 10
COc1cccc(NC(=O)c2ccc(C)c(-c3ccc4c(C5CCNCC5)noc4c3)c2)c1	< 10
Cc1ccc(C(=O)Nc2nccs2)cc1-c1ccc2c(C)noc2c1	< 10
Cc1c(F)cc(C(=O)NC2CC2)cc1-c1ccc2c(cnn2S(=O)(=O)/C=C/c2ccccc2)c1	< 10
Cc1c(F)cc(C(=O)NC2CC2)cc1-c1ccc2c(cnn2S(=O)(=O)C2CC2)c1	< 10
CCc1ccc(S(=O)(=O)n2ncc3cc(-c4cc(C(=O)NC5CC5)cc(F)c4C)ccc32)cc1	< 10
CNC(=O)c1noc2cc(-c3cc(C(=O)NC4CC4)cc(F)c3C)ccc12	< 10
Cc1c(F)cc(C(=O)NC2CC2)cc1-c1ccc2c(cnn2S(=O)(=O)c2ccc(Cl)cc2)c1	< 10
Cc1c(F)cc(C(=O)NC2CC2)cc1-c1ccc2c(cnn2S(=O)(=O)c2cc(F)cc(F)c2)c1	< 10
Cc1ccc(C(=O)NC2CC2)cc1-c1ccc2c(cnn2S(=O)(=O)c2ccccc2[N+](=O)[O-])c1	< 10
COc1ccc(CNC(=O)Cn2ncc3cc(-c4cc(C(=O)NC5CC5)cc(F)c4C)ccc32)cc1	< 10
Cc1c(F)cc(C(=O)NC2CC2)cc1-c1ccc2c(cnn2S(=O)(=O)c2ccc(C#N)cc2)c1	< 10
Cc1ccc(NC(=O)c2ccnc(N3CCCC3)c2)cc1-c1ccc2onc(C)c2c1	< 10
COc1ccc(S(=O)(=O)n2ncc3cc(-c4cc(C(=O)NC5CC5)ccc4C)ccc32)cc1OC	< 10
Cc1c(F)cc(C(=O)NC2CC2)cc1-c1ccc2c(cnn2S(=O)(=O)c2ccc(Cl)s2)c1	< 10
Cc1ccccc1S(=O)(=O)n1ncc2cc(-c3cc(C(=O)NC4CC4)cc(F)c3C)ccc21	< 10
COc1ccc(S(=O)(=O)n2ncc3cc(-c4cc(C(=O)NC5CC5)cc(F)c4C)ccc32)cc1	< 10
Cc1c(F)cc(C(=O)NC2CC2)cc1-c1ccc2c(cnn2S(=O)(=O)c2ccc3c(c2)CCO3)c1	< 10
Cc1c(F)cc(C(=O)NC2CC2)cc1-c1ccc2c(cnn2S(C)(=O)=O)c1	< 10
Cc1c(F)cc(C(=O)NC2CC2)cc1-c1ccc2c(cnn2S(=O)(=O)C(C)C)c1	< 10
Cc1ccc(C(=O)NC2CC2)cc1-c1ccc2c(cnn2S(=O)(=O)c2ccc(F)c(F)c2)c1	< 10

Second part, the molecule after the results:

IC50 [µM]	Structure (SMILES)
< 10	Cc1ccc(C(=O)NC2CC2)cc1-c1ccc2c(C)noc2c1
< 10	Cc1ccc(C(=O)NC2CC2)cc1-c1ccc2c(CC(=O)NCCCO)noc2c1
< 10	CC(=O)c1ccc(S(=O)(=O)n2ncc3cc(-c4cc(C(=O)NC5CC5)ccc4C)ccc32)cc1
< 10	Cc1ccc(C(=O)NC2CC2)cc1-c1ccc2c(cnn2S(=O)(=O)CC(F)(F)F)c1
< 10	Cc1ccc(C(=O)NC2CC2)cc1-c1ccc2[nH]ncc2c1
< 10	Cc1ccc(C(=O)NC2CC2)cc1-c1ccc2c(cnn2CC(=O)NC(C)C)c1
< 10	Cc1ccc(C(=O)NC2CC2)cc1-c1ccc2c(CC(=O)N3CCCC3)noc2c1
< 10	Cc1ccc(C(=O)NC2CC2)cc1-c1ccc2c(cnn2S(=O)(=O)c2ccccc2)c1
< 10	Cc1ccc(C(=O)NC2CC2)cc1-c1ccc2c(cnn2CC(=O)NCC2CC2)c1
< 10	Cc1ccc(C(=O)NC2CC2)cc1-c1ccc2c(cnn2S(=O)(=O)C(C)C)c1
< 10	Cc1ccc(C(=O)NC2CC2)cc1-c1ccc2c(cnn2C2CCNCC2)c1
< 10	Cc1ccc(C(=O)NC2CC2)cc1-c1ccc2c(cnn2CC2CC2)c1
< 10	CNC(=O)Cc1noc2cc(-c3cc(C(=O)NC4CC4)ccc3C)ccc12
< 10	Cc1ccc(C(=O)NC2CC2)cc1-c1ccc2c(CC(=O)N3CCOCC3)noc2c1
< 10	Cc1ccc(C(=O)NC2CC2)cc1-c1ccc2c(CNC(CO)CO)noc2c1
< 10	CCNC(=O)Cc1noc2cc(-c3cc(C(=O)NC4CC4)ccc3C)ccc12
< 10	Cc1ccc(C(=O)NC2CC2)cc1-c1ccc2c(cnn2S(=O)(=O)C2CC2)c1
< 10	Cc1ccc(C(=O)NC2CC2)cc1-c1ccc2c(CC(=O)NCC3CC3)noc2c1
< 10	Cc1ccc(C(=O)NC2CC2)cc1-c1ccc2c(N3CCNCC3)noc2c1
< 10	Cc1ccc(C(=O)NC2CC2)cc1-c1ccc2c(cnn2CC(=O)NCc2ccccc2)c1
< 10	Cc1ccc(C(=O)NC2CC2)cc1-c1ccc2c(cnn2C2CCN(C(=O)OC(C)(C)C)CC2)c1
< 10	Cc1ccc(C(=O)NC2CC2)cc1-c1ccc2c(CN3CCCCC3)noc2c1
< 10	Cc1ccc(C(=O)NC2CC2)cc1-c1ccc2c(CN3CCN(C)CC3)noc2c1
< 10	Cc1ccc(C(=O)NC2CC2)cc1-c1ccc2cn[nH]c2c1
< 10	Cc1ccc(C(=O)NC2CC2)cc1-c1ccc2c(CC(=O)N3CCCCC3)noc2c1
< 10	Cc1ccc(C(=O)NC2CC2)cc1-c1ccc2c(C3CCNCC3)noc2c1
< 10	Cc1ccc(C(=O)NC2CC2)cc1-c1ccc2c(cnn2S(=O)(=O)c2cccs2)c1
< 10	Cc1ccc(C(=O)NC2CC2)cc1-c1ccc2nc(NC(=O)C3CC3)sc2c1
< 10	Cc1ccc(C(=O)NC2CC2)cc1-c1ccc2c(N)noc2c1
< 10	Cc1ccc(C(=O)NC2CC2)cc1-c1ccc2c(CC(=O)NCCO)noc2c1
